Structures are written as SMILES. pIC50: −log10 of the molar value. Several values for one entry are separate records, joined by “and”; a condition that tells them apart may be missing. Identical values can stand only once. Counter-ions that a name gives are not always drawn.

A short description of data set [1]: Plasma pharmacokinetics in mice after single intravenous cassette doses. To be noted: mice; for Mean concentration in plasma: single 18 mg/kg intravenous cassette dose (Cassette #1).
Procedure: Male mice are given single intravenous cassette doses of CDK inhibitor compounds.
A single intravenous cassette dose (18 or 15 mg/kg free base) is administered. For each compound, this is equivalent to a dose of approx. 3 mg/kg free base. […] The dose is administered at a volume of 10 ml/kg (total volume of approximately 0.25 ml/animal).
Male mice (Hsd:ICR (CD-1® SD®), Harlan), each weighing approximately 20-30 g at the start of the study. […] Water is available ad libitum throughout the study.
A single cassette dose of 5-6 compounds is administered by bolus injection into the tail vein over a 10-15-second period. […] Whole blood (approximately 0.6 ml/sample) is obtained by cardiac puncture and transferred to 3 ml glass tubes containing 45 U sodium heparin.
Sample Processing: Plasma: Whole blood is centrifuged at approximately 3,200 rpm for 10 min at approximately 5° C. and the plasma (approx. 0.3 ml/sample) is transferred to chilled plastic vials and stored at approx. −70° C. until bioanalysis.
Sample Analysis: Concentrations of each test article in plasma are quantitated by a non-validated method based on LC/MS using the following protocol.
Samples are removed from the freezer, allowed to thaw at room temperature, and vortexed to insure complete homogenization prior to sample manipulation. Samples are then prepared according to the following scheme: • 1. transfer 48 μL of plasma (blank mouse sample) into a 12×75 mm test tube. • 2. add 12 μL of working standard to the blank plasma for standard curve preparation. • 3. […] Inject 25 μL on LC/MS. Chromatographic Conditions:
Data Analysis: Concentrations of Compounds in plasma of individual animals are determined by bioanalytics. […] Statistical analyses are limited to simple expressions of variation (mean and standard deviation). The plasma AUC (area-under-curve) is determined by the linear trapezoidal rule. […] All PK parameters are determined by noncompartmental methods using WinNonlin version 3.0 (Pharsight Corp).
The following information is based on a graph of the semi-log of the plasma concentration in ng/ml versus collection time in hours. • “Cmax” represents the maximum plasma concentration. • “t1/2” represents the half-life of the compound. • “AUC0-∞” represents the calculated area under the curve. • “AUC % Extrap(obs.)” represents the extrapolated area under the curve. • “Cls” is the clearance rate.
Data set [2] in a line: Red blood cell binding (RBC to plasma ratio), human whole blood. The conditions noted are these: 30 minutes at 37° C., nominal 500 ng/ml. The data set is classed as in vitro ADME. As to the method: (§1) Compounds, including one positive control, are assessed for red blood cell (RBC) uptake, using a modified procedure based on the protocol reported in Sun, J. X. S., et al. High-performance liquid chromatographic analysis, plasma protein binding and red blood cell partitioning of phenprobamate. Biopharmaceutics and Drug Disposition, 8 (1987) 341-351.
(§2) Briefly, RBC uptake is evaluated by comparison of the levels in spiked plasma (n=3) and plasma isolated from spiked whole blood (n=3). Compounds are incubated with human and mouse whole blood, respectively, for 30 minutes at 37° C. using a nominal concentration of 500 ng/ml. Following centrifugation, the plasma is removed and submitted for analysis. Each compound is also spiked into blank plasma at a nominal concentration of 500 ng/ml, and submitted for analysis. Levels in the two plasma samples (Cp′ and Cp in the equation below) and the blood hematocrit are used to determine the red blood cell to plasma ratio (Crbc/Cp). [formula] In equation 1, Cp′ is the level of drug in the spiked “blank” plasma, Cp is the level of drug in the plasma of spiked whole blood, and H is the hematocrit. The hematocrit values are determined as 0.4 for human whole blood and 0.41 for mouse whole blood. The samples are analyzed with ESI LC/MS, using positive ion detection with an internal standard.
(§3) The red blood cell to plasma ratio is determined for each compound using equation 1. Tables 6 and 7 summarize the respective mean Crbc/Cp values and standard deviations for mouse and human whole blood, respectively, in descending order based on the red blood cell to plasma ratio, where “*” denotes Positive Control, and “ND” denotes Not Determined. MDL 108552 is included as a positive control for red blood cell uptake.

Data set [3] in a line: Red blood cell binding (RBC to plasma ratio), mouse whole blood. The data set is classed as in vitro ADME. To be noted: 30 minutes at 37° C., nominal 500 ng/ml. As to the method: as §1, §2, §3
In a further data set the target is cdk4/cyclin D1 (Homo sapiens, UniProt P11802). Put plainly: Cyclin-dependent kinase assay, cdk4/cyclin D1 (GST-pRb substrate). The data set is classed as biochemical. To be noted: inhibition of cyclin D1/CDK 4 enzyme activity.
The mark [4] stands for this setting: Cassette #2, single 18 mg/kg iv cassette dose (3 mg/kg/compound), 24 h.
[5] abbreviates: 24 h, BLQ = below assay quantification limit (approx. 1 ng/ml).
Where [6] appears, read: Cassette #3, single 15 mg/kg iv cassette dose (3 mg/kg/compound), 24 h.
[7] abbreviates: Cassette #4, single 15 mg/kg iv cassette dose (3 mg/kg/compound), 8 h.
The mark [8] stands for this setting: Cassette #4, single 15 mg/kg iv cassette dose (3 mg/kg/compound), 24 h.

Chain of cdk4/cyclin D1 (P11802 whole entry): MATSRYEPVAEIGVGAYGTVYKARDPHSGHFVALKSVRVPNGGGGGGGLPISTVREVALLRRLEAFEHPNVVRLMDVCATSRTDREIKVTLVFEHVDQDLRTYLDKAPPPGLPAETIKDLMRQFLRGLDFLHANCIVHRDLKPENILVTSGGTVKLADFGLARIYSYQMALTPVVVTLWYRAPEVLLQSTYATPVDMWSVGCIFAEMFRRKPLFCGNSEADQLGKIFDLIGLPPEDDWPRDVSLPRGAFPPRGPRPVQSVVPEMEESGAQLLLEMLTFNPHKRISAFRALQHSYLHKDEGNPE
Chain of cdk4/cyclin D1 (P24385 whole entry partner): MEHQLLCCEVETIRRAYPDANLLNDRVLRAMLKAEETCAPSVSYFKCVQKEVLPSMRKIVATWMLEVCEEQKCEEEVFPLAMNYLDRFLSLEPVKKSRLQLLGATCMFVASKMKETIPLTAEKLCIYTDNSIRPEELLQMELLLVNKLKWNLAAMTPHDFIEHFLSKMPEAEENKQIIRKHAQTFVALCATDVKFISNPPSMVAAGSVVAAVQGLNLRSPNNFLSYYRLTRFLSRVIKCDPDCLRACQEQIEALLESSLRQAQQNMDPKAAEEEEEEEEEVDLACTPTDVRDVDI

Take `Cl.Cl.N[C@H]1CC[C@H](Nc2nc(NC3CCN(C(=O)Oc4ccc(Br)cc4)CC3)c3ncn(C4CCCC4)c3n2)CC1` [Compound 81, trans-4-[2-(4-Amino-cyclohexylamino)-9-cyclopentyl-9H-purin-6-ylamino]-piperidine-1-carboxylic acid 4-bromo-phenyl ester dihydrochloride]: in data set [1] (setting [4]), the “Mean Conc. in plasma” value is recorded as “BLQ”. Moreover, the “Mean Red Blood Cell to Plasma Ratio” value is 5.3 in data set [2]; 4.5 and 3.3 in data set [3] (hematocrit 0.41, dihydrochloride).

Take `COc1ccc(OC(=O)N2CCC(Nc3nc(N[C@H]4CC[C@H](N)CC4)nc4c3ncn4C3CCCC3)CC2)cc1.Cl.Cl` [Compound 84, trans-4-[2-(4-Amino-cyclohexylamino)-9-cyclopentyl-9H-purin-6-ylamino]-piperidine-1-carboxylic acid 4-methoxy-phenyl ester dihydrochloride]: the “Mean Conc. in plasma” value in data set [1] (setting [4]) was “BLQ”. For the same compound, the figures for the “Mean Red Blood Cell to Plasma Ratio” value in data set [2] and in data set [3] (hematocrit 0.41) were 2.0 and 3.5, respectively.

On to `Cl.Cl.N[C@H]1CC[C@H](Nc2nc(NC3CCN(C(=O)Oc4ccccc4)CC3)c3ncn(C4CCCC4)c3n2)CC1` [Compound 85, trans-4-[2-(4-Amino-cyclohexylamino)-9-cyclopentyl-9H-purin-6-ylamino]-piperidine-1-carboxylic acid phenyl ester dihydrochloride], for which the “Mean concentration in plasma” value was 843.3 ± 124.5 ng/mL in data set [1] (0.083 h); 341.6 ± 45.1 ng/mL in data set [1] (0.25 h); 163.8 ± 15.7 ng/mL in data set [1] (0.5 h); 89.0 ± 21.5 ng/mL in data set [1] (1 h); 14.3 ± 7.1 ng/mL in data set [1] (3 h); 5.2 ± 1.9 ng/mL in data set [1] (6 h). The entries for the “Mean concentration in plasma” value in data set [1] (8 h) and in data set [1] (setting [5]) were 3.2 ng/mL and “BLQ”, respectively. For the same compound, the “Mean Red Blood Cell to Plasma Ratio” value in data set [2] is given as 7.1; in data set [3] (hematocrit 0.41), 6.1.

On to `Cl.Cl.N[C@H]1CC[C@H](Nc2nc(NC3CCN(C(=O)Oc4ccc(Cl)cc4)CC3)c3ncn(C4CCCC4)c3n2)CC1` [Compound 88, trans-4-[2-(4-Amino-cyclohexylamino)-9-cyclopentyl-9H-purin-6-ylamino]-piperidine-1-carboxylic acid 4-chloro-phenyl ester dihydrochloride], for which the “Mean Conc. in plasma” value came to 1483.3 ± 272.5 ng/mL in data set [1] (Cassette #3, single 15 mg/kg iv cassette dose (3 mg/kg/compound), 0.083 h); 420.9 ± 49.9 ng/mL in data set [1] (Cassette #3, single 15 mg/kg iv cassette dose (3 mg/kg/compound), 0.25 h); 150.2 ± 5.9 ng/mL in data set [1] (Cassette #3, single 15 mg/kg iv cassette dose (3 mg/kg/compound), 0.5 h); 74.6 ± 16.1 ng/mL in data set [1] (Cassette #3, single 15 mg/kg iv cassette dose (3 mg/kg/compound), 1 h); 24.8 ± 7.4 ng/mL in data set [1] (Cassette #3, single 15 mg/kg iv cassette dose (3 mg/kg/compound), 3 h); 8.9 ± 1.6 ng/mL in data set [1] (Cassette #3, single 15 mg/kg iv cassette dose (3 mg/kg/compound), 6 h). Further, the “Mean Conc. in plasma” value in data set [1] (Cassette #3, single 15 mg/kg iv cassette dose (3 mg/kg/compound), 8 h) was 5.4 ± 2.0 ng/mL; in data set [1] (setting [6]) it was “BLQ”. Further, the figures for the “Mean Red Blood Cell to Plasma Ratio” value in data set [2] and in data set [3] (hematocrit 0.41) were 2.6 and 3.5, respectively.

As to `Cl.Cl.N[C@H]1CC[C@H](Nc2nc(NC3CCN(C(=O)Oc4ccc([N+](=O)[O-])cc4)CC3)c3ncn(C4CCCC4)c3n2)CC1` [Compound 89, trans-4-[2-(4-Amino-cyclohexylamino)-9-cyclopentyl-9H-purin-6-ylamino]-piperidine-1-carboxylic acid 4-nitro-phenyl ester dihydrochloride], the “Mean Conc. in plasma” value in data set [1] (Cassette #4, single 15 mg/kg iv cassette dose (3 mg/kg/compound), 0.083 h) amounted to 642.0 ± 49.5 ng/mL; in data set [1] (Cassette #4, single 15 mg/kg iv cassette dose (3 mg/kg/compound), 0.25 h) it was 303.3 ± 34.3 ng/mL; in data set [1] (Cassette #4, single 15 mg/kg iv cassette dose (3 mg/kg/compound), 0.5 h) it was 142.4 ± 2.7 ng/mL; in data set [1] (Cassette #4, single 15 mg/kg iv cassette dose (3 mg/kg/compound), 1 h), 52.4 ± 4.2 ng/mL; in data set [1] (Cassette #4, single 15 mg/kg iv cassette dose (3 mg/kg/compound), 3 h), 17.0 ± 4.7 ng/mL; in data set [1] (Cassette #4, single 15 mg/kg iv cassette dose (3 mg/kg/compound), 6 h), 3.7 ± 1.0 ng/mL. In addition, the “Mean Conc. in plasma” value in data set [1] (setting [7]) was 3.8 ± 0.5 ng/mL; in data set [1] (setting [8]), “BLQ”. For the same compound, the “Mean Red Blood Cell to Plasma Ratio” value in data set [2] is on record as 4.2; in data set [3] (hematocrit 0.41), 4.7.

The compound `C=CCCOC(=O)N1CCC(Nc2nc(N[C@H]3CC[C@H](N)CC3)nc3c2ncn3C2CCCC2)CC1` [Compound 100, trans-4-[2-(4-Amino-cyclohexylamino)-9-cyclopentyl-9H-purin-6-ylamino]-piperidine-1-carboxylic acid but-3-enyl ester dihydrochloride] gave a pIC50 at cdk4/cyclin D1 of under 5.00.

`COc1cc(COC(=O)N2CCC(Nc3nc(N[C@H]4CC[C@H](N)CC4)nc4c3ncn4C3CCCC3)CC2)c([N+](=O)[O-])cc1OC` [Compound 101, trans-4-[2-(4-Amino-cyclohexylamino)-9-cyclopentyl-9H-purin-6-ylamino]-piperidine-1-carboxylic acid 4,5-dimethoxy-2-nitro-benzyl ester dihydrochloride] showed a pIC50 at cdk4/cyclin D1 of under 5.00.

In the case of `Cl.Cl.N[C@H]1CC[C@H](Nc2nc(NC3CCN(S(=O)(=O)c4ccc(F)cc4)CC3)c3ncn(C4CCCC4)c3n2)CC1` [Compound 106, trans-N^2-(4-Amino-cyclohexyl)-9-cyclopentyl-N^6-[1-(4-fluoro-benzenesulfonyl)-piperidin-4-yl]-9H-purine-2,6-diamine dihydrochloride], the “Mean Conc. in plasma” value in data set [1] (setting [7]) was “BLQ^a”; in data set [1] (setting [8]) it was “BLQ”. Also, the “Mean Red Blood Cell to Plasma Ratio” value worked out at 3.9 in data set [2] and 3.0 in data set [3] (hematocrit 0.41).

On to `Cl.Cl.N#Cc1ccc(S(=O)(=O)N2CCC(Nc3nc(N[C@H]4CC[C@H](N)CC4)nc4c3ncn4C3CCCC3)CC2)cc1` [Compound 109, trans-N^2-(4-Amino-cyclohexyl)-9-cyclopentyl-N^6-[1-(4-cyano-benzenesulfonyl)-piperidin-4-yl]-9H-purine-2,6-diamine dihydrochloride], for which, in data set [1] (setting [5]), the “Mean concentration in plasma” value was “BLQ”. Moreover, the “Mean Red Blood Cell to Plasma Ratio” value in data set [2] stood at 5.0; in data set [3] (hematocrit 0.41), 2.4.

Take `COC(=O)c1ccccc1S(=O)(=O)N1CCC(Nc2nc(N[C@H]3CC[C@H](N)CC3)nc3c2ncn3C2CCCC2)CC1.Cl.Cl` [Compound 111, trans-2-{4-[2-(4-Amino-cyclohexylamino)-9-cyclopentyl-9H-purin-6-ylamino]-piperidine-1-sulfonyl}-benzoic acid methyl ester dihydrochloride]: the “Mean concentration in plasma” value in data set [1] (setting [5]) is on record as “BLQ”. Moreover, the “Mean Red Blood Cell to Plasma Ratio” value stood at 1.2 in data set [2] and 2.2 in data set [3] (hematocrit 0.41).

Regarding `Cl.Cl.N[C@H]1CC[C@H](Nc2nc(NC3CCN(S(=O)(=O)c4cccc(C(F)(F)F)c4)CC3)c3ncn(C4CCCC4)c3n2)CC1` [Compound 112, trans-N^2-(4-Amino-cyclohexyl)-9-cyclopentyl-N^6-[1-(3-trifluoromethyl-benzenesulfonyl)-piperidin-4-yl]-9H-purine-2,6-diamine dihydrochloride], the “Mean Conc. in plasma” value in data set [1] (setting [6]) is recorded as “BLQ”. For the same compound, the entries for the “Mean Red Blood Cell to Plasma Ratio” value in data set [2] and in data set [3] (hematocrit 0.41) were 3.7 and 2.4, respectively.

For `Cl.Cl.N[C@H]1CC[C@H](Nc2nc(NC3CCN(C(=O)Nc4ccc(C(F)(F)F)cc4)CC3)c3ncn(C4CCCC4)c3n2)CC1` [Compound 149, trans-4-[2-(4-Amino-cyclohexylamino)-9-cyclopentyl-9H-purin-6-ylamino]-piperidine-1-carboxylic acid (4-trifluoromethyl-phenyl)-amide dihydrochloride], the “Mean Conc. in plasma” value in data set [1] (setting [6]) is “BLQ”. Also, the figures for the “Mean Red Blood Cell to Plasma Ratio” value in data set [2] and in data set [3] (hematocrit 0.41) were 2.8 and 3.4, respectively.

Source of the values: patent publication US6861524B2, “Acyl and sulfonyl derivatives of 6,9-disubstituted 2-(trans-1,4-diaminocyclohexyl)-purines and their use as antiproliferative agents” (Aventis Pharmaceuticals Inc., priority 2000, dated 2005).
